Results on 71 compounds are retold here after PubChem BioAssay AID179 (DTP/NCI, 2004).

This experiment has as its system CEM cells HIV-1 protection, formazan growth assay. Briefly: NCI AIDS Antiviral Assay. Conditions: for IC50: measured here: growth of uninfected CEM cells. The essentials: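 Human CEM cells, uninfected and HIV-1-infected, received five drug concentrations, and growth was read by soluble formazan assay. Compounds giving at least 50% protection were retested; reproducible 100% protection defined confirmed active.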

Active and inactive are the calls of the source.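 The calls were made as follows: active = compounds giving half or more protection of infected cells from virus-caused growth loss, again on retest; inactive = the rest.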

One may read the EC50 as the concentration at which the effect is half-maximal. For orientation: IC50 means the concentration needed to halve the response being measured. A lower IC50 goes with inhibition by little substance. Turning to `C=C(Br)CNC(=O)Nc1ccc(Cl)c(Cl)c1`, the EC50 was over 200 µM and the IC50 came out at 21.9 µM.

Consider `CO/C=C/CCCN(CC#N)Cc1ccccc1`, for which the EC50 was over 27.5 µM and the 50% inhibitory concentration (IC50) was over 27.5 µM. With `C=CCCCN1CCCCC1=S`, the EC50 is over 251 µM and the IC50 is over 251 µM.

For `C=C(CS(=O)(=O)c1ccccc1)C(=O)OCC`, the outcome was inactive. With `COc1ccc(Nc2nc3cc(C(F)(F)F)ccc3nc2-c2ccccc2)cc1OC`, the EC50 is over 30.9 µM and the IC50 is over 30.9 µM. With `CCOc1ccccc1NC(=O)C(=O)CC(=O)c1c(C)n([O-])c2ccccc2[n+]1=O`, the EC50 is over 110 µM and the IC50 was over 110 µM.

Consider `Nc1ccc(C(=O)Nc2ccccc2N)cc1`, for which the EC50 was over 1100 µM and the IC50 worked out at 3.8 µM. For the compound `CC(=O)/C(=C/N1CC(=O)NC1=S)C(=O)Nc1ccccc1`, the EC50 was over 200 µM and the IC50 was over 200 µM. On to `CSc1n[nH]c(NC(=O)c2ccc(Cl)cc2)n1`, for which the EC50 was over 19.5 µM and the IC50 is over 19.5 µM. As to `CCC(C(=O)C(=O)OC)P1(=O)OC(C)(C)CN1C(C)(C)C` (centres undefined), the EC50 was over 200 µM and the half-inhibitory concentration (IC50) is over 200 µM. Turning to `CC(=O)OCC1OC(SC2=N/C(=C\c3ccc(Br)s3)C(=O)N2CN2CCOCC2)C(OC(C)=O)C(OC(C)=O)C1OC(C)=O` (centres undefined), the EC50 is over 200 µM and the concentration for half-maximal inhibition (IC50) turned out to be 9.33 µM. Regarding `O=c1[nH]nc(Nc2ccccc2)c2nnn(Cc3ccccc3)c12`, the outcome was inactive.

On to `NCC1OC(OC2C(N)CC(N)C(O)C2OC2OC(CO)C(O)C2O)C(N)C(O)C1O` (centres undefined), for which the result was inactive. Turning to `CCOC(=O)c1cn(CC)c2ccc3c(c2c1=O)S(=O)(=O)C=C3`, the EC50 is over 200 µM and the concentration for half-maximal inhibition (IC50) came out at 29.5 µM.

In the case of `O=[N+]([O-])c1ccccc1S(=O)(=O)Oc1ccc(Cl)cc1`, the outcome was active. On to `O=C(/C=C/c1ccc([N+](=O)[O-])o1)N1CCN(Cc2ccccc2)CC1`, for which the EC50 is over 95.5 µM and the IC50 is 11.2 µM.

Regarding `O=c1oc2ccccc2c(O)c1C(c1ccccc1)c1c(O)c2ccccc2oc1=O`, the EC50 was over 200 µM and the IC50 worked out at 33.1 µM. As for `C=CC1(C)CC(=O)C2(O)C(C)(O1)C(OC(C)=O)C(O)C1C(C)(C)CCC(O)C12C` (centres undefined), the outcome was inactive. With `Cc1c(N=Nc2ccc(Br)cc2)c(=O)n(-c2ccccc2)c(=S)n1-c1nc2ccccc2s1`, the EC50 was over 83.2 µM and the IC50 was 19.5 µM. In the same order, the values of `Nc1nnc(Sc2ccc([N+](=O)[O-])cc2)s1` are over 195 µM and 11.7 µM. For `Cc1nnc(Sc2nc(C#N)c(C#N)nc2Sc2nnc(C)s2)s1`, in that order: over 200 µM and 8.13 µM. Regarding `CN1C(=O)n2c(nc3ccccc32)C(N=[N+]=[N-])(N=[N+]=[N-])C1=O` (centres undefined), the EC50 was 70.8 µM and the IC50 is over 100 µM. For `COc1ccc(-c2n[nH]c3nc4ccccc4n3c2=O)cc1`, in that order: over 200 µM and over 200 µM. Regarding `CN(C)CCC=C1c2ccccc2CCc2ccccc21`, the EC50 is over 200 µM and the concentration for half-maximal inhibition (IC50) was found to be 34.7 µM. In the same order, the values of `Nc1ccc2c(c1)NC(=O)[C@@H]1CCCN1C2=O` are over 200 µM and over 200 µM. For `CCOC(=O)C(CCc1ccccn1)C(C)=O` (centres undefined), in that order: over 200 µM and over 200 µM. Take `Cc1ccc(NC(=O)/C(=N\NC(N)=O)c2c(O)c3ccccc3[nH]c2=O)cc1`: the EC50 is over 95.5 µM and the IC50 was over 95.5 µM. Consider `C/C(=N\NC(N)=S)c1ccc(Oc2ccccc2)cc1`, for which the result was inactive. As to `C1=C(c2ccccc2)N2CCCNC2(c2ccccc2)CS1` (centres undefined), the EC50 is over 200 µM and the concentration for half-maximal inhibition (IC50) is 132 µM. With `COC(=O)[C@H](CO)NC(=O)CC/C(C)=C/c1ccccc1`, the EC50 is over 200 µM and the half-maximal inhibitory concentration (IC50) was 191 µM.

Consider `CC1=CC(=O)N(n2c(Cc3ccc(Cl)cc3)n[nH]c2=O)C1=O`, for which the EC50 was over 200 µM and the IC50 is over 200 µM. For the compound `CCOC(=O)C1=CN/C(=C(/C)C(=O)OC)SC1C(=O)OCC` (centres undefined), the EC50 is over 200 µM and the IC50 came out at 37.2 µM.

On to `CC(C)(C)N=C1C(=O)C2(C)CCC1C2(C)C` (centres undefined), for which the EC50 was over 20 µM and the IC50 is over 20 µM. Take `c1cnc2c(c1)n[n+]1[n-]c3ccccc3n21`: the EC50 is over 12.3 µM and the IC50 was over 12.3 µM. Take `COc1ccc(N2C(=Nc3ccccc3)SC(=N/S(=O)(=O)c3ccccc3)/C2=N\S(=O)(=O)c2ccccc2)cc1`: the EC50 was over 200 µM and the IC50 was 11.7 µM. For `COc1cc(N)c2nc(C(O)C(O)C(O)CO)cnc2c1` (centres undefined), in that order: over 851 µM and 617 µM. On to `COC1=CC2=C3[C@H](Cc4cc5c(c(c4)Oc4ccc(cc4)C[C@@H]4c6cc7c(cc6CCN4C)OC[C@]3(O7)C1=O)OCO5)N(C)CC2`, for which the outcome was inactive. Consider `Clc1ccc(-c2nnc(-c3nsc4ccccc34)o2)cc1`, for which the EC50 was over 12 µM and the IC50 is over 12 µM. Take `O=C(NC(=Nc1ccccc1)SCSC(=Nc1ccccc1)NC(=O)c1ccccc1F)c1ccccc1F`: the EC50 is over 200 µM and the IC50 came out at 28.8 µM.

`COc1ccc2nc(NC(=O)C(=O)C(C#N)c3ccc(CC#N)cc3)sc2c1` (centres undefined): the outcome was inactive.

As to `CCCCCCCCCCCCCCCCCCSCC(COP(=O)(O)OP(=O)(O)OCC1OC(n2ccc(=O)[nH]c2=O)CC1N=[N+]=[N-])OC(=O)CCCCCCCCCCCCCCC` (centres undefined), the EC50 was over 209 µM and the IC50 came to 186 µM. As for `CC(=O)OCC1CC(n2cc(C)c(=O)[nH]c2=O)=NO1` (centres undefined), the EC50 was over 200 µM and the 50% inhibitory concentration (IC50) was over 200 µM. For `C[N+]1(CCCC(O)CC[N+]2(C)CCCC2)CCCC1` (centres undefined), the outcome was inactive. With `Cc1ccc(C2=CSC3=NCCN23)cc1Cl`, the EC50 is over 200 µM and the IC50 was determined as 93.3 µM. `CN(NC(=O)/C(=C\c1ccco1)NC(=O)c1ccccc1)c1cn[nH]c(=O)c1Cl`: the EC50 is over 200 µM and the IC50 was found to be 38.9 µM. On to `CCN1C[C@]2(COC)CCC(O)C34[C@@H]5C[C@@H]6C(O)[C@@H]5[C@](O)(C[C@@H]6OC)[C@@H](C(OC)[C@@H]32)[C@H]14` (some centres undefined), for which the result was inactive. In the case of `CC(C)C(=O)CC(c1ccc(Br)cc1)N1N=C(C(C)C)CC1c1ccc(Br)cc1` (centres undefined), the EC50 is over 10 µM and the concentration for half-maximal inhibition (IC50) is over 10 µM.

Consider `Cc1cc(Cl)c(O)c(-c2cc(-c3ccccc3O)c(C#N)c(N)n2)c1`, for which the EC50 was over 200 µM and the concentration for half-maximal inhibition (IC50) was 2.14 µM. For `Cc1cc(S(=O)(=O)Nc2nnc3c(Cl)cc(C(F)(F)F)cn23)c(S)cc1Cl`, in that order: 70.8 µM and 380 µM.

In the case of `O=C(NCC(O)COc1ccccc1)c1ccccc1O` (centres undefined), the EC50 was over 200 µM and the half-inhibitory concentration (IC50) was determined as 115 µM. As to `O=C(O)c1ccc(CS(=O)c2ccccc2)c([N+](=O)[O-])c1` (centres undefined), the result was inactive. As for `COC1/C=C/OC2(C)Oc3c(C)c(O)c4c(O)c(c(/C=N/OCCN5CCCCC5)c(O)c4c3C2=O)NC(=O)C(C)=C/C=C/C(C)C(O)C(C)C(O)C(C)C(OC(C)=O)C1C` (centres undefined), the EC50 was over 100 µM and the half-maximal inhibitory concentration (IC50) is 28.2 µM. For `CCC1=CC(OCc2ccccc2)C(CCN(Cc2ccccc2)C(=O)OCc2ccccc2)C1` (centres undefined), in that order: over 200 µM and 9.55 µM. For `COc1cc([C@@H]2c3cc4c(cc3[C@@H](OC3OC5CO[C@@H](c6cccs6)OC5C(O)C3O)[C@H]3COC(=O)[C@H]23)OCO4)cc(OC)c1O` (some centres undefined), in that order: over 0.398 µM and 0.00174 µM. In the same order, the values of `CN(C)c1ccc(C2SCC(=O)N2NS(=O)(=O)c2cccc(C(=O)O)c2)cc1` (centres undefined) are over 200 µM and 79.4 µM.

Turning to `CC12CO[C@@](C)(CC(S(=O)(=O)c3ccccc3)C1)O2` (some centres undefined), the EC50 was over 178 µM and the IC50 was over 178 µM. As to `NC1=NS(=O)(=O)N=C(N)C1=NNc1ccc([N+](=O)[O-])cc1`, the EC50 is over 794 µM and the half-maximal inhibitory concentration (IC50) is 126 µM. On to `N=c1c2ccccc2nc2oc3cc([N+](=O)[O-])ccc3n12`, for which the EC50 was over 195 µM and the half-inhibitory concentration (IC50) stood at 138 µM. For `C[CH2][Sn]([CH2]C)([S]CCS(=O)(=O)O)[S]CCS(=O)(=O)O` (tested in a mixture with another compound), in that order: over 200 µM and 3.16 µM.

As to `CC(C)=CCN1CC(C)C(=O)Nc2ccccc21` (centres undefined), the EC50 is 19.5 µM and the concentration for half-maximal inhibition (IC50) is 117 µM. In the same order, the values of `CC1(C)OC(=O)c2cc(C(=CC=O)c3cc(Cl)c4c(c3)C(=O)OC(C)(C)O4)cc(Cl)c2O1` are over 200 µM and 36.3 µM. In the same order, the values of `O=C(NO)c1ccc([N+](=O)[O-])cc1` are over 200 µM and 29.5 µM. `CCO/C(O)=c1/s/c(=C(\C#N)c2nc3ccccc3[nH]2)n(-c2ccccc2)c1=N`: the EC50 is over 17.8 µM and the 50% inhibitory concentration (IC50) is 15.1 µM. As to `N#C/C(=C\c1cc(Cl)cc(Cl)c1)c1ccccn1`, the EC50 is over 200 µM and the half-inhibitory concentration (IC50) came to 8.91 µM. For `O=C1OCC(CN2CCC(n3c(=O)[nH]c4ccccc43)CC2)=C1c1ccccc1`, in that order: over 200 µM and 30.9 µM.

On to `CCn1cc(/C=C/C(C)c2cn(CC)c(=O)[nH]c2=O)c(=O)[nH]c1=O` (centres undefined), for which the result was inactive. `Cc1c(-c2c(C)c(=O)c3c(C(C)C)c(=O)c(=O)c(C=O)c-3c2=O)c(O)c2c(C=O)c(O)c(O)c(C(C)C)c2c1O`: the EC50 is over 13.2 µM and the 50% inhibitory concentration (IC50) came to 7.08 µM. As for `CCOc1ccccc1-n1c(-c2ccc([N+](=O)[O-])cc2)csc1=NC(=O)c1cccc([N+](=O)[O-])c1`, the EC50 is over 200 µM and the half-maximal inhibitory concentration (IC50) stood at 186 µM.

`COc1cc2c(cc1OC)c1c(OC)c(OC)cc3c1c1c2sc(=S)n1CC3`: the outcome was inactive. Regarding `O=C(NC(=S)Nc1ccccn1)c1ccccc1`, the EC50 was over 200 µM and the half-maximal inhibitory concentration (IC50) is 135 µM. For `O=C1C2CC3OC3CC2C(=O)N1CN1C(=O)C2CC3OC3CC2C1=O` (centres undefined), in that order: over 200 µM and over 200 µM.
